Measured values published in patent US8173645B2 (Takeda San Diego, Inc., priority 2007, dated 2012).

Molecular target: T1, glucokinase (GK), residues 12-465 of the human enzyme (Homo sapiens, UniProt P35557)
T1 construct: I.D. No. 1 corresponds to residues 12-465 of glucokinase; made in house; host or cells: E. coli DH10b-Tlr
T1 sequence (P35557 with tags, fused parts or gaps isoform P35557-2): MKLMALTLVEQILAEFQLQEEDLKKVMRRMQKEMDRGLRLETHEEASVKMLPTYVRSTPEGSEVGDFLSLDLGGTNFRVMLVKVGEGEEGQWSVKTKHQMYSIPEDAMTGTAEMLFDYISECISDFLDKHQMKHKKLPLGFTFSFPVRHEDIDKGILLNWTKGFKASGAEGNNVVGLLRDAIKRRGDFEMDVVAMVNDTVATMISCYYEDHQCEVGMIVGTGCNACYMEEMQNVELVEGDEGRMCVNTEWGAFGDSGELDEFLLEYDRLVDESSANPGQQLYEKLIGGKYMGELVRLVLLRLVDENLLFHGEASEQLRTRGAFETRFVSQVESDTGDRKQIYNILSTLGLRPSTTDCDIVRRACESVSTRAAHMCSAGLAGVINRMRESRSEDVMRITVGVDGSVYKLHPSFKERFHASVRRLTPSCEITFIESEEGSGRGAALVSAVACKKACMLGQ
Assay: Enzymatic glucokinase activity assay (KinaseGlo luminescence, ATP consumption)
Assay type: biochemical
Settings: 5 μM ATP, 5 mM Glucose; for EC50: GK activation, Kact = concentration giving 50% of the maximal increase in GK activity, read-out: pKact; for Emax: calculated maximal gain in GK enzyme activity at a saturating concentration of the compound, read-out: % ACTmax
Procedure, shortened: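 Activation measured as ATP consumption: residual ATP detected by KinaseGlo luminescence after 60 min at room temperature with 5 μM ATP and 5 mM glucose (Hepes pH 7.2, MgCl2, Brij35, DTT, 2% DMSO). Enzyme was recombinant FLAG-tagged protein from E. coli. Eleven-point twofold series were fitted nonlinearly for pKact and % ACTmax.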

SMILES	EC50	Emax
N#Cc1cc(S(=O)(=O)N2CCN([C@@H](CC3CCCCC3)C(=O)Nc3nccs3)C(=O)C2)ccc1F [Example 230, (S)-2-(4-(3-cyano-4-fluorophenylsulfonyl)-2-oxopiperazin-1-yl)-3-cyclohexyl-N-(thiazol-2-yl)propanamide]	1.58 to 2.51 µM	74.1 to 97%
O=C(Nc1nccs1)[C@H](CC1CCCCC1)N1CCN(C(=S)NCc2cccs2)CC1=O [Example 123, (S)-3-cyclohexyl-2-(2-oxo-4-(thiophen-2-ylmethylcarbamothioyl)piperazin-1-yl)-N-(thiazol-2-yl)propanamide]	1.58 to 2.51 µM	108 to 119%
N#Cc1ccc(NC(=S)N2CCN([C@@H](CC3CCCCC3)C(=O)Nc3nccs3)C(=O)C2)cc1 [Example 126, (S)-2-(4-(4-cyanophenylcarbamothioyl)-2-oxopiperazin-1-yl)-3-cyclohexyl-N-(thiazol-2-yl)propanamide]	0.794 to 1.26 µM	97.1 to 107%
O=C(Nc1nccs1)[C@H](CC1CCCCC1)N1CCN(C(=S)NC2CCCC2)CC1=O [Example 128, (S)-3-cyclohexyl-2-(4-(cyclopentylcarbamothioyl)-2-oxopiperazin-1-yl)-N-(thiazol-2-yl)propanamide]	0.794 to 1.26 µM	97.1 to 107%
O=C(Nc1nccs1)[C@H](CC1CCCCC1)N1CCN(S(=O)(=O)c2ccc(-c3cnco3)s2)CC1=O [Example 161, (S)-3-cyclohexyl-2-(4-(5-(oxazol-5-yl)thiophen-2-ylsulfonyl)-2-oxopiperazin-1-yl)-N-(thiazol-2-yl)propanamide]	1.58 to 2.51 µM	97.1 to 107%
CC(C)(C)c1ccc(S(=O)(=O)N2CCN([C@@H](CC3CCCCC3)C(=O)Nc3nccs3)C(=O)C2)cc1 [Example 224, (S)-2-(4-(4-tert-butylphenylsulfonyl)-2-oxopiperazin-1-yl)-3-cyclohexyl-N-(thiazol-2-yl)propanamide]	0.794 to 1.26 µM	≤ 74%
O=C(Nc1nccs1)[C@H](CC1CCCCC1)N1CCN(S(=O)(=O)c2cc3ccccc3s2)CC1=O [Example 104, (S)-2-(4-(benzo[b]thiophen-2-ylsulfonyl)-2-oxopiperazin-1-yl)-3-cyclohexyl-N-(thiazol-2-yl)propanamide]	≤ 0.631 µM	74.1 to 97%
O=C(Nc1nccs1)[C@H](CC1CCCCC1)N1CCN(S(=O)(=O)Cc2ccccc2)CC1=O [Example 41, (S)-2-(4-(benzylsulfonyl)-2-oxopiperazin-1-yl)-3-cyclohexyl-N-(thiazol-2-yl)propanamide]	≤ 0.631 µM	97.1 to 107%
COC(=O)c1c(C)oc(C)c1S(=O)(=O)N1CCN([C@@H](CC2CCCCC2)C(=O)Nc2nccs2)C(=O)C1 [Example 162, (S)-methyl 4-(4-(3-cyclohexyl-1-oxo-1-(thiazol-2-ylamino)propan-2-yl)-3-oxopiperazin-1-ylsulfonyl)-2,5-dimethylfuran-3-carboxylate]	≥ 3.16 µM	≤ 74%
CNC(=O)Nc1ccc(S(=O)(=O)N2CCN([C@@H](CC3CCCCC3)C(=O)Nc3nccs3)C(=O)C2)cc1Cl [Example 214, (S)-2-(4-(3-chloro-4-(3-methylureido)phenylsulfonyl)-2-oxopiperazin-1-yl)-3-cyclohexyl-N-(thiazol-2-yl)propanamide]	1.58 to 2.51 µM	97.1 to 107%
O=C(Nc1nccs1)[C@H](CC1CCCCC1)N1CCN(C(=O)Nc2ccc3sccc3c2)CC1=O [Example 144, (S)-N-(benzo[b]thiophen-5-yl)-4-(3-cyclohexyl-1-oxo-1-(thiazol-2-ylamino)propan-2-yl)-3-oxopiperazine-1-carboxamide]	≥ 3.16 µM	≤ 74%
O=C(Nc1nccs1)[C@H](CC1CCCCC1)N1CCN(C(=S)NC2CCCCC2)CC1=O [Example 114, (S)-3-cyclohexyl-2-(4-(cyclohexylcarbamothioyl)-2-oxopiperazin-1-yl)-N-(thiazol-2-yl)propanamide]	1.58 to 2.51 µM	97.1 to 107%
O=C(Nc1nccs1)[C@H](CC1CCCCC1)N1CCN(S(=O)(=O)c2cc(Cl)c(Cl)cc2Cl)CC1=O [Example 219, (S)-3-cyclohexyl-2-(2-oxo-4-(2,4,5-trichlorophenylsulfonyl)piperazin-1-yl)-N-(thiazol-2-yl)propanamide]	1.58 to 2.51 µM	≤ 74%
Cc1cc(F)ccc1S(=O)(=O)N1CCN([C@@H](CC2CCCCC2)C(=O)Nc2nccs2)C(=O)C1 [Example 223, (S)-3-cyclohexyl-2-(4-(4-fluoro-2-methylphenylsulfonyl)-2-oxopiperazin-1-yl)-N-(thiazol-2-yl)propanamide]	1.58 to 2.51 µM	97.1 to 107%
COc1ccc(C)cc1S(=O)(=O)N1CCN([C@@H](CC2CCCCC2)C(=O)Nc2nccs2)C(=O)C1 [Example 95, (S)-3-cyclohexyl-2-(4-(2-methoxy-5-methylphenylsulfonyl)-2-oxopiperazin-1-yl)-N-(thiazol-2-yl)propanamide]	0.794 to 1.26 µM	≥ 119%
O=C(Nc1nccs1)[C@H](CC1CCCCC1)N1CCN(S(=O)(=O)c2cccc3cccnc23)CC1=O [Example 40, (S)-3-cyclohexyl-2-(2-oxo-4-(quinolin-8-ylsulfonyl)piperazin-1-yl)-N-(thiazol-2-yl)propanamide]	0.794 to 1.26 µM	108 to 119%
O=C(Nc1nccs1)[C@H](CC1CCCCC1)N1CCN(S(=O)(=O)c2csc3ccccc23)CC1=O [Example 50, (S)-2-(4-(benzo[b]thiophen-3-ylsulfonyl)-2-oxopiperazin-1-yl)-3-cyclohexyl-N-(thiazol-2-yl)propanamide]	0.794 to 1.26 µM	≤ 74%
CCOC(=O)c1nc(-c2ccc(S(=O)(=O)N3CCN([C@@H](CC4CCCCC4)C(=O)Nc4nccs4)C(=O)C3)s2)no1 [Example 167, (S)-ethyl 3-(5-(4-(3-cyclohexyl-1-oxo-1-(thiazol-2-ylamino)propan-2-yl)-3-oxopiperazin-1-ylsulfonyl)thiophen-2-yl)-1,2,4-oxadiazole-5-carboxylate]	1.58 to 2.51 µM	≤ 74%

More lines, now with the values ahead:

EC50	Emax	SMILES
1.58 to 2.51 µM	74.1 to 97%	CS(=O)(=O)N1CCN([C@@H](CC2CCCCC2)C(=O)Nc2nccs2)C(=O)C1 [Example 1, (S)-3-cyclohexyl-2-(4-(methylsulfonyl)-2-oxopiperazin-1-yl)-N-(thiazol-2-yl)propanamide]
≤ 0.631 µM	≥ 119%	O=C(Nc1ncc(Cl)s1)[C@H](CC1CCOCC1)N1CCN(S(=O)(=O)C2CCCC2)CC1=O [Example 28, (S)-N-(5-chlorothiazol-2-yl)-2-(4-(cyclopentylsulfonyl)-2-oxopiperazin-1-yl)-3-(tetrahydro-2H-pyran-4-yl)propanamide]
≥ 3.16 µM	≥ 119%	CCn1cc(S(=O)(=O)N2CCN([C@@H](CC3CCCCC3)C(=O)Nc3nccs3)C(=O)C2)cn1 [Example 110, (S)-3-cyclohexyl-2-(4-(1-ethyl-1H-pyrazol-4-ylsulfonyl)-2-oxopiperazin-1-yl)-N-(thiazol-2-yl)propanamide]
≤ 0.631 µM	≥ 119%	O=C(Nc1ncc(Cl)s1)C(CC1CCCC1)N1CCN(S(=O)(=O)C2CC2)CC1=O (stereo not drawn) [Example 16, N-(5-chlorothiazol-2-yl)-3-cyclopentyl-2-(4-(cyclopropylsulfonyl)-2-oxopiperazin-1-yl)propanamide]
≤ 0.631 µM	≥ 119%	O=C(Nc1nccs1)[C@H](CC1CCCCC1)N1CCN(S(=O)(=O)c2ccccc2F)CC1=O [Example 205, (S)-3-cyclohexyl-2-(4-(2-fluorophenylsulfonyl)-2-oxopiperazin-1-yl)-N-(thiazol-2-yl)propanamide]
0.794 to 1.26 µM	108 to 119%	O=C(Nc1ncc(Cl)s1)C(CC1CCOCC1)N1CCN(S(=O)(=O)c2cccc(F)c2)CC1=O (stereo not drawn) [Example 147, N-(5-chlorothiazol-2-yl)-2-(4-(3-fluorophenylsulfonyl)-2-oxopiperazin-1-yl)-3-(tetrahydro-2H-pyran-4-yl)propanamide]
0.794 to 1.26 µM	≥ 119%	O=C(Nc1ncc(Cl)s1)[C@H](CC1CCOCC1)N1CCN(S(=O)(=O)C2CC2)CC1=O [Example 24, (S)-N-(5-chlorothiazol-2-yl)-2-(4-(cyclopropylsulfonyl)-2-oxopiperazin-1-yl)-3-(tetrahydro-2H-pyran-4-yl)propanamide]
≤ 0.631 µM	74.1 to 97%	O=C(Nc1nccs1)[C@H](CC1CCCCC1)N1CCN(S(=O)(=O)c2ccco2)CC1=O [Example 108, (S)-3-cyclohexyl-2-(4-(furan-2-ylsulfonyl)-2-oxopiperazin-1-yl)-N-(thiazol-2-yl)propanamide]
0.794 to 1.26 µM	≤ 74%	O=C(Nc1nccs1)[C@H](CC1CCCCC1)N1CCN(S(=O)(=O)c2ccc(Cl)c(Cl)c2Cl)CC1=O [Example 220, (S)-3-cyclohexyl-2-(2-oxo-4-(2,3,4-trichlorophenylsulfonyl)piperazin-1-yl)-N-(thiazol-2-yl)propanamide]
